A short description of data set [1]: Differential scanning calorimetry of SMLs and SML/diacyl lipid mixtures. Format: physicochemical. An excerpt: Specific SMLs were used as the model compounds to study the properties of the SML compounds. Phase behavior is one of the most important properties of lipid bilayers and is associated with various biological functions of cell membranes. Addition of free cholesterol to the phospholipid bilayer will change the phase behavior of the bilayer due to the mixing of free cholesterol with the glycerolipids and sphingolipids as well as the effect the isoprenol tail of free cholesterol exerts on the acyl chain packing in the bilayer. Using differential scanning calorimetry it was shown that the SMLs exert a similar effect as free cholesterol on acyl chain packing in bilayers composed of synthetic lipids. […] The equivalent sterol molar percentage in the mixture of m-SML and diacyl lipid is calculated according to the method of conventional lipid mixture with the following formula: Sterol %=[…])×100, wherein: For example, a pure m-SML has one sterol and one acyl chain, thus the equivalent free sterol percentage is 1/1.5×100=67. […]
A general note: Differential scanning calorimetry records heat flow against a reference as temperature is scanned.

The subject of a further data set is C26 colon carcinoma. Briefly: Survival of Balb/C mice tumored with C26 colon carcinoma after doxorubicin delivered in liposomes of various compositions. The following applies: Dose of Dox 10 mg/kg, s.c. C26 tumors. Format: in vivo. The protocol:
The effect of these formulations on tumor progression and animal survival were compared against the effect non-encapsulated doxorubicin or Doxil™, a commercial liposome formulation of doxorubicin that is approved by the Food and Drug Administration in the Balb/C mice tumored with C26 colon carcinoma. (FIGS. 8 and 9, Table 3).
Drug loaded liposomes of defined size were prepared by methods well known in the art and described in, for example, (Liposomes: 2nd edition, Oxford University Press, 2003, V. Torchilin and V. Weissig., Ed.). Lipid films were prepared by drying 10 μmoles of lipid mixtures dissolved in chloroform under a reduced pressure in glass tubes using a rotary evaporator at room temperature, followed by an overnight exposure to a high vacuum. Liposomes were prepared by rehydrating the thin lipid film above the transition temperature of the lipid in a sterile 250 mM ammonium sulfate solution in screw-capped glass tubes, followed by sonication in a bath type sonicator for 10 minutes at 60° C. The liposome preparation was then extruded through 0.1 micron polycarbonate membranes. […] Mean vesicle diameters as measured by dynamic light scattering using the multimodal program ranged between 85-140 nm with a monodisperse particle size distribution (Malvern Instruments, UK). […]
All animal experiments were performed in compliance with the NIH guidelines for animal research under a protocol approved by the Committee on Animal Research at the University of California, San Francisco. […] Mice were weighed and tumor sizes were monitored daily during the experimental period. The tumor volume was estimated by measuring three orthogonal diameters (a, b, and c) with calipers; the volume was calculated as (a×b×c)×0.5 cm^3. […] In each experiment the mice were monitored for up to 60 days post-inoculation or until one of the following conditions for euthanasia was met: 1) their body weight dropped below 15% of their initial mass; 2) their tumor was greater than 2.0 cm across in any dimension; 3) they became lethargic or sick and unable to feed; or 4) they were found dead. […]

The nature of data set [2]: Cholesterol exchange from donor liposomes to POPC acceptor liposomes at 37° C. In kind it is physicochemical. As to conditions: PChcPC/DPPC/DPPG (50/40/10), DChcPC/DPPC/DPPG (25/65/10), POPC acceptor. The protocol:
Unilamellar liposomes were prepared by extrusion method. […] Specifically, the three donor liposomes were formulated at the following molar ratios: 1) […] (50/40/10), 2) […] (25/65/10), 3) Chol/DPPC/DPPG (40/50/10). Neutral 1-palmitoyl-2-oleoyl-sn-glycero-3-phosphocholine (POPC) liposome was used as the acceptor. After extrusion, the diameter of the donor liposomes was around 100 nm, and 140 nm for the acceptor liposome. For the exchange experiments, 1 mL donor liposomes (10 mM) and 1 mL acceptor liposomes (100 mM, 10 fold) were warmed at 37° C. first, then mixed and incubated at 37° C. An aliquot (250 μL) of mixture was sampled at given time point and applied to a small (ca. 1 cm in length) anion exchange column (Q-Sepharose XL). The column was pretreated with 0.1 mL 10 mM POPC before the loading of the exchange sample to reduce the nonspecific binding of the neutral liposome. The column was eluted with 1 mL 10 mM NaCl, 10 mM HEPES pH 7.4 buffer. The eluate was lyophilized and analyzed by the cholesterol assay to quantify the amount of cholesterol exchanged.

Data set [3] is described as follows: Leakage of calcein from liposomes in 30% fetal bovine serum at 37° C.
Protocol: The purified calcein (56 mM) was then encapsulated into the liposomes for the leakage assay. Generally, the dry lipid film (10 μmol) of given formulation was hydrated in 1 mL calcein containing buffer at 60° C. under argon for 15 min with intermittent vortex. Then the sample was extruded through a polycarbonate membrane 11 times at 60° C. followed by passing a Sephadex G-50 column with the corresponding isosmotic eluent. The pooled liposome fractions were then analyzed to determine the calcein concentration, and diluted to the linear fluorescence range for leakage studies discussed below.
Calcein was encapsulated into the liposome by the method described above. Liposomes were extruded through 200 nm membrane and the free calcein was removed by passing the liposomes through the Sephadex G-50 column using HEPES buffer (10 mM HEPES, 140 mM NaCl, pH 7.4) as the isomotic eluent. Conventional liposome formulations containing 40% cholesterol (mole percent) were used as the control in the long term leakage assay. An aliquot of liposome sample (20-50 μL) was diluted by 30% fetal bovine serum to a total volume of 2 mL. Samples were then sealed in the glass tube and incubated at 37° C. Fluorescence intensities of samples were monitored at different time points and the fraction of calcein remaining in the liposome was determined by the similar method of osmotic stress induced leakage. […]
The conditions of data set [4]: calcein liposomes, 37° C., compared with DMPC liposomes.
Protocol: The fluorescent dye calcein (2.49 g, 4 mmol) was dissolved in Tris-HCl buffer (10 mM, pH 7.5, 6 mL) after the addition of 50% sodium hydroxide (695 μL, 13.2 mmol). This stock solution was then loaded on a Sephadex LH-20 column (2.5 cm×40 cm) and eluted with Tris-HCl buffer (10 mM, pH 7.5). The concentration of pooled fraction of calcein was determined by measuring the absorbance (494 nm) of diluted sample at pH 9. The purified calcein (56 mM) was then encapsulated into the liposomes for the leakage assay. Generally, the dry lipid film (10 μmol) of given formulation was hydrated in 1 mL calcein containing buffer at 60° C. under argon for 15 min with intermittent vortex. […] The pooled liposome fractions were then analyzed to determine the calcein concentration, and diluted to the linear fluorescence range for leakage studies discussed below.
Liposomes used for this study were prepared according to the above mentioned method (Example 11) with high concentration content (56 mM calcein, 10 mM Tris, 711 mM NaCl), extruded through 100 nm membrane, and eluted with the isosmotic buffer (50 mM HEPES, 775 mM NaCl). […] Fluorescence signal at 517 nm (ext.: 494 nm) was read after 5 min equilibration by using a Quantech™ fluorometer (Barnstead/Thermolyne, Dubuque, Iowa). […] The fluorescence of the total calcein was measured and used as 100% signal (F100%). […]
Data set [5] is classed as physicochemical. The protocol: SML16m was designed to have a large surface area than conventional phospholipids by replacing of the hydrophobic lipid chain with an amphiphilic poly(ethylene glycol) chain. […] Unlike conventional amphiphilic molecules, SML16m solution doesn't foam when agitated, but forms a thin membrane along the glass wall above the solution surface. SML16m can effectively solubilize amphotericin B at molar ratios of 1:1 or higher to obtain a concentration of 5 mg/mL. SML16m can also be formulated with other lipids to achieve small liposomes.

Data set [6] has as its system C26 colon carcinoma cells. As to conditions: MTT, concentration as high as 1 mM.
Protocol: The cytotoxicity of the SML lipids was evaluated with the standard MTT (3-(4,5-dimethylthiazolyl-2)-2,5-diphenyltetrazolium bromide) assay method. Briefly, C26 cells were incubated with lipids of various concentrations for a period of time at 37° C. Then the medium was replaced with the MTT working reagents, and the cells were incubated for another two hours. The reagents were then carefully removed. The converted dye was solubilized in acidic isopropanol. The absorbance of the dye was measured at 570 nm with background subtraction at 650 nm.
In data set [7] the test system is phospholipase A2 (PLA2). The following applies: for release of all-trans retinoic acid from SML7a: pH 8.8, Triton X-100. The protocol: Retinoic acid was used as the model drug for the investigation of enzyme triggered drug release. The release of all-trans retinoic acid from SML7a (1-cholesteryl-2-all-trans-retinoyl-sn-glycerophosphocholine) was evaluated with phospholipase A2 (PLA2) from a variety of sources including bovine, naja mossambica, and streptomyces vialaceoruber. All PLA2s were from Aldrich-Sigma. A chloroform solution of SML7a (50 μmol) in 50 mL round-bottom flask was evaporated by the rotavapor. The flask was placed under high vacuum overnight. The lipid film was hydrated in 10 mL pH 8.8 buffer containing 20 mM Triton X-100, 10 mM CaCl2, 10 mM HEPES, and 50 mM KCl. […] Aliquots of the solution (250 μL) were preincubated at 37° C. for 10 minutes, then used for the PLA2 assay. Aliquots of PLA2 solution (25 units in 250 μL pH 8.8 buffer of 10 mM HEPES, and 50 mM KCl) were preincubated at 37° C. for 10 minutes, and mixed with the aliquots of pre-warmed solution of SML7a. At different time point, the hydrolysis samples were analyzed by TLC, and quantified by densimeter.

Data set [8] has as its target T1, phospholipase A2 (PLA2) (Bos taurus, UniProt P00593).
T1 construct: purchased Aldrich-Sigma
Briefly: Drug release by phospholipase A2 (bovine). Format: biochemical. As to conditions: bovine PLA2, 37° C., pH 8.8, Triton X-100. The text has this: All PLA2s were from Aldrich-Sigma. […] The flask was placed under high vacuum overnight.

Like-named read-outs stand apart in the source and are kept apart here.

Results on eight compounds are retold here after US20110177156A1, “Sterol-Modified Amphiphilic Lipids” (priority 2007, published 2011).

T1 sequence (P00593 23-145): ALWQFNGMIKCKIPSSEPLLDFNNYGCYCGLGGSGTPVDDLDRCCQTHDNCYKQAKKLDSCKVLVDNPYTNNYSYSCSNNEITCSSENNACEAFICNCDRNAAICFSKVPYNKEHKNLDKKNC

Regarding “1-Cholesterylcarbonoyl-2-palmityl-rac-glycero-3-phosphocholine [SML2b]”, in data set [1] (SML mixed with diacyl lipid of the same chain length (C-16)), the “equivalent cholesterol at which the phase transition is eliminated completely” value was 30%.
As to `COc1cccc2c1C(=O)c1c(O)c3c(c(O)c1C2=O)C[C@@](O)(C(=O)CO)C[C@@H]3O[C@H]1C[C@H](N)[C@H](O)[C@H](C)O1` [Free Dox, Doxorubicin], the “# of Animals Surviving at Day 60 (n = 5)” value in the data set on C26 colon carcinoma was 0; in the data set on C26 colon carcinoma (listed as non-encapsulated doxorubicin), “no animals survived to 60 days”. In addition, the “Median Survival Day” value in the data set with C26 colon carcinoma worked out at 26 days.
Take `CC(C)CCC[C@@H](C)[C@H]1CC[C@H]2[C@@H]3CC=C4C[C@@H](OC(=O)OC[C@H](COP(=O)([O-])OCC[N+](C)(C)C)OC(=O)O[C@H]5CC[C@@]6(C)C(=CC[C@H]7[C@@H]8CC[C@H]([C@H](C)CCCC(C)C)[C@@]8(C)CC[C@@H]76)C5)CC[C@]4(C)[C@H]3CC[C@]12C` [SML6a, 1,2-Dicholesterylcarbonoyl-sn-glycero-3-phosphocholine]: the “exchange of cholesterol out of donor liposomes” value in data set [2] is reported as “very little or no detectable exchange of cholesterol”. The “new transition in DSC trace” value in data set [1] (DChcPC/DPPC mixtures, equivalent free cholesterol 30 mole percent) was “around 20 °C”.
For the compound `CCCCCCCCCCCCCCNC(=O)O[C@H](COC(=O)O[C@H]1CC[C@@]2(C)C(=CC[C@H]3[C@@H]4CC[C@H]([C@H](C)CCCC(C)C)[C@@]4(C)CC[C@@H]32)C1)COP(=O)([O-])OCC[N+](C)(C)C` [SML1c, 1-Cholesterylcarbonoyl-2-myristylcarbamoyl-sn-glycero-3-phosphocholine], in data set [3] (37° C., 4 weeks), the “leakage profile of calcein from liposomes” value is listed as “remained intact”. For the same compound, the “leakage of calcein in 28 days” value in data set [3] (28 days) is listed as “less than 1%”. In addition, the “osmotic leakage profile / stability under osmotic gradients” value in data set [4] is given as “no difference in osmotic induced release”; in data set [4] (listed as ChcMaPC), “good stability”.
With `COCCOCCOCCOCCOCCOCCOCCOCCC(=O)O[C@H](COC(=O)CCC(=O)O[C@H]1CC[C@@]2(C)C(=CC[C@H]3[C@@H]4CC[C@H]([C@H](C)CCCC(C)C)[C@@]4(C)CC[C@@H]32)C1)COP(=O)([O-])OCC[N+](C)(C)C` [SML16m, 1-cholesterylhemisuccinoyl-2-(2,5,8,11,14,17,20,23-octaoxahexacosan-26-oyl)-sn-glycero-3-phosphocholine], in [5], the “concentration of amphotericin B solubilized” value was 5000 µg/mL and the solubility in water result is recorded as “dissolves in water easily”.
For `CCCCCCCCCCCCCCCCCCNC(=O)OC(COC(=O)OC1CCC2(C)C(=CCC3C2CCC2(C)C(C(C)CCCC(C)C)CCC32)C1)COP(=O)([O-])OCC[N+](C)(C)C` (stereo not drawn) [SML1a, 1-Cholesterylcarbonoyl-2-stearylcarbamoyl-sn-glycero-3-phosphocholine], the cytotoxicity entry in data set [6] is listed as “certain cytotoxicity”.
Same read-out and setting: to `CCCCCCCCCCCCCCCCNC(=O)OC(COC(=O)OC1CCC2(C)C(=CCC3C2CCC2(C)C(C(C)CCCC(C)C)CCC32)C1)COP(=O)([O-])OCC[N+](C)(C)C` (stereo not drawn) [SML1b, 1-Cholesterycarbonoyl-2-palmitylcarbamoyl-sn-glycero-3-phosphocholine] belongs “certain cytotoxicity”.
As for “1-cholesteryl-2-all-trans-retinoyl-sn-glycerophosphocholine [SML7a]”, the “release of all-trans retinoic acid from SML7a” value is listed as “completely release” with phospholipase A2 (PLA2) [7] (naja mossambica PLA2, 37° C.); “completely release” with phospholipase A2 (PLA2) [7] (streptomyces vialaceoruber PLA2, 37° C.); “completely release” at phospholipase A2 (PLA2) [8]. Moreover, in the data set on phospholipase A2 (PLA2) [7] (naja mossambica PLA2 compared with the two other PLA2), the “relative activity of the PLA2 on SML7a” value is recorded as “highest activity”.
